{
  "source": "patent US11110147B2",
  "about": "“Collagen hydrolysates as a beneficial prebiotic and their effect on joint inflammation and osteoarthritis” (ROUSSELOT B.V., priority 2017, dated 2021)",
  "tested_on": "gut microbiome",
  "test": "Microbial 16S rDNA analysis of fecal samples",
  "type": "in vivo, mice",
  "details": "38 mg/day hCol1 or glucosamine, FIG. 10C",
  "experimental": "FIGS. 10A-10C: hCol1 supplementation induces significant change in the gut microbiome. Microbial rDNA analysis was performed on fecal samples collected from lean and obese mice supplemented with control Nutella, 38 mg/day hCol1, or glucosamine. […] FIG. 10A: Principal coordinate analysis of microbial abundance from obese control Nutella (1), obese glucosamine (2), obese hCol1 (3), lean hCol1 (4), lean glucosamine (5) and lean control Nutella (6) mice. […] FIGS. 15A-15G: hCol1 and hCol2 supplementation induces significant change in the gut microbiome and provides protective effects in post-traumatic osteoarthritis. (FIG. 15A) Microbial rDNA analysis was performed on fecal samples collected from chow fed mice supplemented with control Nutella, 38 mg/day hCol1, or 15 mg/day hCol2 for 4 weeks. Bars show relative microbial abundance in the indicated groups. Each bar represents an average of 3 mice. In the chow diet, hCol 1 and 2 tended to have similar effects: Increases in the abundance of Bacteroidales, Lactobacillales, Turicibacterales, and Anaeroplasmatales. […] Panels depicting the tibia uncalcified cartilage area (FIG. 15B), the number of chondrocytes in the tibia uncalcified cartilage (FIG. 15C), the number (FIG. 15D) and percentage (FIG. 15E) of Safranin-O positive (SafO^+) chondrocytes in the tibia uncalcified cartilage, the femur uncalcified cartilage area (FIG. 15F), and the number of chondrocytes in the femur uncalcified cartilage (FIG. 15G) in Sham and DMM chow fed mice supplemented with vehicle (Nutella) (Control DMM), hCol1 (P1 DMM) or hCol2 (P2 DMM) at 12 weeks after injury. FIGS. 16A-16E: (FIG. 16A) Microbial rDNA analysis was performed on fecal samples collected from lean fed mice supplemented with control Nutella, 38 mg/day hCol1, or 15 mg/day hCol2. Bars show relative microbial abundance in the indicated groups. […] Panels depicting the tibia cartilage area (FIG. 16B), the tibia uncalcified cartilage area (FIG. 16C), the number of chondrocytes in the tibia uncalcified cartilage (FIG. 16D), and the percentage (FIG. 16E) of Safranin-O positive (SafO^+) chondrocytes in the tibia uncalcified cartilage in Sham and DMM lean fed mice supplemented with vehicle (Nutella) (Control DMM), hCol1 (P1 DMM) or hCol2 (P2 DMM) at 12 weeks after injury. FIG. 17A-17H: (FIG. 17A) Microbial rDNA analysis was performed on fecal samples collected from high fat (HF) (60% of caloric energy from saturated fat) fed mice supplemented with control Nutella, 38 mg/day hCol1, or 15 mg/day hCol2 for 4 weeks. Bars show relative microbial abundance in the indicated groups. […] Panels depicting the tibia cartilage area (FIG. 17B), the tibia uncalcified cartilage area (FIG. 17C), the number of chondrocytes in the tibia uncalcified cartilage (FIG. 17D), the number of Safranin-O positive (SafO^+) chondrocytes in the tibia uncalcified cartilage (FIG. 17E), the femur uncalcified cartilage area (FIG. 17F), the number of chondrocytes in the femur uncalcified cartilage (FIG. 17G), and the number of Safranin-O positive (SafO^+) chondrocytes in the femur uncalcified cartilage (FIG. 17H) in Sham and DMM high fat diet-fed mice supplemented with vehicle (Nutella) (Control DMM), hCol1 (P1 DMM) or hCol2 (P2 DMM) at 3 weeks after injury. FIG. 19: hCol2 alters the gut microbiome. Mice fed chow or high fat diet for 3 months were supplemented daily with hCol2 (HFD+hCol2) or vehicle (Nutella) (HFD) for 4 weeks. Fecal samples were collected and microbial rDNA analysis was performed. A subset of bacterial species was altered in high fat diet-fed mice compared to chow fed mice, and hCol2 supplementation changed the gut microbiome of these high fat diet-fed mice. Numerous proinflammatory species, particularly Peptococcaceae rc4-4 sp, were reduced in hCol2-supplemented mice (top heat map). Conversely, several anti-inflammatory species were enhanced in hCol2-supplemented animals, including Bifidobacterium pseudolongum (bottom heat map). […]",
  "data": [
    {"smiles": "N[C@H]1C(O)O[C@H](CO)[C@@H](O)[C@@H]1O", "note": "(some centres unmarked) [glucosamine]", "values": [
      {"measurement": "relative microbial abundance: Actinobacteria", "setting": "lean mice", "value": 12.07, "unit": "%"},
      {"measurement": "relative microbial abundance: Bacteroidetes", "setting": "lean mice", "value": 13.4103, "unit": "%"},
      {"measurement": "relative microbial abundance: Firmicutes", "setting": "lean mice", "value": 72.6939, "unit": "%"},
      {"measurement": "relative microbial abundance: Tenericutes", "setting": "lean mice", "value": 1.1749, "unit": "%"},
      {"measurement": "relative microbial abundance: Verrucomicrobia", "setting": "lean mice", "value": 0.0119, "unit": "%"},
      {"measurement": "relative microbial abundance: Actinobacteria", "setting": "lean mice, listed as Glucosamine", "value": 12.7091, "unit": "%"},
      {"measurement": "relative microbial abundance: Actinobacteria", "setting": "obese mice", "value": 0.4928, "unit": "%"},
      {"measurement": "relative microbial abundance: Bacteroidetes", "setting": "obese mice", "value": 11.2335, "unit": "%"},
      {"measurement": "relative microbial abundance: Firmicutes", "setting": "obese mice", "value": 88.0274, "unit": "%"},
      {"measurement": "relative microbial abundance: Proteobacteria", "setting": "obese mice", "value": 0.0005, "unit": "%"},
      {"measurement": "relative microbial abundance: Verrucomicrobia", "setting": "obese mice", "value": 0.2458, "unit": "%"}
    ]}
  ]
}
